Drawing on ChEMBL document CHEMBL1156829 (Proc Natl Acad Sci U S A, 2008), this text covers EC50 and CC50 for 56 compounds.

The structures appear in SMILES notation.

For data set [1], the system named is Plasmodium falciparum. Briefly: NOVARTIS: Inhibition of Plasmodium falciparum 3D7 (drug-susceptible) proliferation in erythrocyte-based infection assay. The note with it: Plasmodium falciparum, 3D7. The data set is classed as functional, organism-based.
The subject of data set [2] is Plasmodium falciparum. In words: NOVARTIS: Inhibition of Plasmodium falciparum W2 (drug-resistant) proliferation in erythrocyte-based infection assay. The data set is classed as functional, organism-based. Conditions: Plasmodium falciparum, W2; read-out: EC50.
The nature of data set [3]: NOVARTIS: Cytotoxicity against human hepatocellular carcinoma cell line (Huh7). Conditions: Huh7 cells (hepatocellular carcinoma cell line). The data set is classed as toxicity, cell-based, Huh-7.

As to `C=CC1(O)CN2CCC1CC2[C@@H](O)c1ccnc2ccc(OC)cc12` (stereo partly drawn), the EC50 in the data set with Plasmodium falciparum [1] was 105 nM; in the data set with Plasmodium falciparum [2], 264 nM. In addition, the half-maximal cytotoxic concentration (CC50) in data set [3] is over 10000 nM.
The like results for `Brc1ccc(Nc2nc(NCc3ccco3)c3ccccc3n2)cc1` were, in that order, 196 nM, 192 nM and 7150 nM.
The matching figures for `CCc1ccccc1NC(C)=O`: over 12500 nM, 5410 nM and over 100000 nM.
The matching figures for `CCOC(=O)c1c(C)n(-c2ccccc2)c2ccc(O)cc12`: 1700 nM, 2660 nM and over 100000 nM.
`O=C(CN1CCN(S(=O)(=O)c2cccc([N+](=O)[O-])c2)CC1)Nc1ccc(OCc2ccccc2)cc1`: the EC50 is 3910 nM in the data set on Plasmodium falciparum [1] and 2650 nM in the data set on Plasmodium falciparum [2]. The compound further gave a CC50 in data set [3] of over 100000 nM.
The matching figures for `O=C(C[n+]1cc(-c2ccc(Cl)cc2)n2c1CCC2)c1ccc(C2CCCCC2)cc1`: 1310 nM, 942 nM and 35500 nM.
The like results for `CCN(CC)CCCC(C)NCc1ccc(OC)c(OCc2ccccc2)c1` (stereo not drawn) were, in that order, over 787 nM, 264 nM and over 10000 nM.
The matching figures for `Cc1c[n+](Cc2ccccc2)ccc1/C=C/c1ccccc1`: 502 nM, 543 nM and over 10000 nM.
`COc1ccc(/C=C2\SC(=Nc3ccc(F)cc3)NC2=O)c(OC)c1`: the EC50 in the data set on Plasmodium falciparum [1] worked out at 270 nM; in the data set with Plasmodium falciparum [2], 543 nM. Further, the CC50 in data set [3] was over 10000 nM.
The matching figures for `O=C(C1CC1)N1CCc2cc(Br)cc(S(=O)(=O)N3CCCCC3)c21`: 8140 nM, 2640 nM and over 100000 nM.
The like results for `Cc1c(C(=O)N2CCC(C)CC2)sc2ncn(CC(=O)N3CCN(c4ccccn4)CC3)c(=O)c12` were, in that order, over 1250 nM, 266 nM and over 10000 nM.
Turning to `CCCCCCCCCC(=O)N1CCN(C(CC)c2nc3ccccc3c(=O)n2C)CC1` (stereo not drawn), the figures for the concentration for a half-maximal effect (EC50) in the data set with Plasmodium falciparum [1] and in the data set with Plasmodium falciparum [2] were 283 nM and 267 nM, respectively. The compound also returned a cytotoxic concentration (CC50) in data set [3] of over 10000 nM.
The matching figures for `Cc1nc(NC(=N)N)nc2c(C)cccc12`: 301 nM, 443 nM and 16400 nM.
The matching figures for `CCOc1ccc(C(=O)C[N+]2=C(CC)c3ccc(C)n3CC2)cc1`: 2440 nM, 2190 nM and 81000 nM.
The like results for `COc1cccc2cc(C(=O)Nc3cccc(C(F)(F)F)c3)c(=O)oc12` were, in that order, over 1250 nM, 64 nM and over 2370 nM.
For `Cc1cc(C)nc(NC(=N)Nc2cccc(O)c2)n1`, the values for the EC50 in the data set on Plasmodium falciparum [1] and with Plasmodium falciparum [2] were 3920 nM and 2650 nM, respectively. This compound also registered a CC50 in data set [3] of over 100000 nM.
The matching figures for `CN(C)c1ccc(/C=C/C(=O)NC(=O)c2ccccc2OC(=O)c2ccccc2)cc1`: 238 nM, 265 nM and over 10000 nM.
Take `O=C(Nc1nc(-c2ccccc2)cs1)c1ccccc1O`: the concentration giving a half-maximal response (EC50) in the data set with Plasmodium falciparum [1] was found to be 1000 nM; in the data set on Plasmodium falciparum [2], 643 nM. This compound yielded a 50% cytotoxic concentration (CC50) in data set [3] of 24300 nM.
The like results for `CCOc1ccc(-c2cn3c(n2)sc2cc(C(=O)NCCN(CC)CC)ccc23)cc1` were, in that order, 766 nM, 1270 nM and 47500 nM.
The like results for `COC(=O)c1c(N)n(-c2ccccc2OC)c2nc3ccccc3nc12` were, in that order, over 12500 nM, 2700 nM and over 100000 nM.
`CN(Cc1ccsc1)C(=O)CCc1nnc(CCCc2ccccc2)o1`: the EC50 with Plasmodium falciparum [1] was over 1250 nM; in the data set on Plasmodium falciparum [2] it was 270 nM. The CC50 in data set [3] was over 10000 nM.
The like results for `CCCCNC(=O)c1ccc(OC2CCN(CC3CCCCC3)CC2)c(Cl)c1` were, in that order, 639 nM, 270 nM and over 10000 nM.
Regarding `O=C(Nc1ccc(-c2nc3ccccc3[nH]2)cc1)c1ccc(-c2ccc(Cl)cc2)o1`, the EC50 in the data set with Plasmodium falciparum [1] worked out at 193 nM; in the data set with Plasmodium falciparum [2], 444 nM. In addition, the CC50 in data set [3] was determined as 16600 nM.
On to `Oc1nnc(SCc2nc3ccccc3s2)n1Cc1ccco1`, for which the half-maximal effective concentration (EC50) is over 1460 nM in the data set on Plasmodium falciparum [1] and 268 nM in the data set on Plasmodium falciparum [2]. Also, the CC50 in data set [3] was over 10000 nM.
Turning to `O=c1c2c([nH]c3ccccc13)CCCCCC2`, the EC50 came out at 2940 nM in the data set with Plasmodium falciparum [1] and 2670 nM with Plasmodium falciparum [2]. Further, the CC50 in data set [3] is over 100000 nM.
Consider `COc1ccc2c(c1)[nH]c1c(N3CCN(C(c4ccccc4)c4ccccc4)CC3)ncnc12`, for which the EC50 in the data set on Plasmodium falciparum [1] worked out at 339 nM; in the data set with Plasmodium falciparum [2], 435 nM. Further, the CC50 in data set [3] is 16300 nM.
The like results for `O=C1NC(=O)C(Cc2ccc(S(=O)(=O)N3CCN(c4ccccc4)CC3)cc2)S1` (stereo not drawn) were, in that order, 790 nM, 5430 nM and over 100000 nM.
The matching figures for `Cc1cc(/C=C2\SC(=Nc3ccccc3)N(C3CCCCC3)C2=O)c(C)n1-c1ccc(Br)cc1`: 476 nM, over 542 nM and over 10000 nM.
The matching figures for `COc1ccc(Cn2c(-c3ccc(Cl)cc3)c[n+]3ccccc23)cc1`: 693 nM, 541 nM and over 10000 nM.
As to `CCN(CC)c1scc(-c2ccc(Br)cc2)[s+]1`, the EC50 with Plasmodium falciparum [1] is 349 nM; with Plasmodium falciparum [2] it was 541 nM. In addition, the CC50 in data set [3] is over 10000 nM.
The like results for `CC(=O)c1ccc(NC(=O)CN(C)S(=O)(=O)c2ccc3[nH]c4c(c3c2)CCCC4)cc1` were, in that order, over 12500 nM, 3580 nM and 66900 nM.
The like results for `CCC(CC)=NNC(=O)C(=O)NC1CCCCC1` were, in that order, 231 nM, 535 nM and over 10000 nM.
The matching figures for `COc1cc(CNNc2nc3cc(Cl)ccc3[nH]2)cc(OC)c1OC`: 308 nM, 541 nM and over 10000 nM.
Regarding `COc1cccc(OCCN2CCN(c3ncnc4c3cnn4-c3ccccc3)CC2)c1`, the EC50 with Plasmodium falciparum [1] was 6250 nM; in the data set on Plasmodium falciparum [2], 4050 nM. Moreover, the CC50 in data set [3] is over 75700 nM.
In the case of `CCOCCCNC(=O)c1cc(NC(=O)c2ccc(Cl)c([N+](=O)[O-])c2)ccc1N1CCCCC1`, the EC50 in the data set with Plasmodium falciparum [1] is over 1250 nM; with Plasmodium falciparum [2] it was 77 nM. Further, the midpoint of cytotoxicity in data set [3], the CC50, lay at 1420 nM.
The matching figures for `COc1ccc(-n2nc(C(C)(C)C)cc2NC(=O)CN(C(=O)c2ccc(C(C)(C)C)cc2)C(C)C)cc1`: 1680 nM, 1850 nM and 34600 nM.
For `O=C(C1CCN(S(=O)(=O)c2cccc3nonc23)CC1)N1CCCc2ccccc21`, the EC50 was over 1250 nM in the data set with Plasmodium falciparum [1] and 534 nM in the data set on Plasmodium falciparum [2]. The same compound yielded a CC50 in data set [3] of over 10000 nM.
The like results for `COc1ccccc1Nc1nc(NCC2CCCO2)c2ccccc2n1` (stereo not drawn) were, in that order, 1040 nM, 1570 nM and 29400 nM.
The matching figures for `O=C(NCCCCNc1ccnc2cc(Cl)ccc12)C(c1ccccc1)c1ccccc1`: 730 nM, 440 nM and over 8210 nM.
The like results for `Cc1oc(-c2cccc(C(F)(F)F)c2)cc1C(=O)O` were, in that order, over 887 nM, 267 nM and over 10000 nM.
Consider `Clc1ccc(CNCCCn2ccnc2)cc1Cl`, for which the EC50 is over 1250 nM with Plasmodium falciparum [1] and over 269 nM in the data set on Plasmodium falciparum [2]. The CC50 in data set [3] was over 10000 nM.
The like results for `O=C(CCl)Nc1ccc(CN2CCCCC2)cc1` were, in that order, 976 nM, 911 nM and 34100 nM.
The matching figures for `COc1ccc(C(=O)NC(c2ccc(C)cc2)c2cc(Cl)c3cccnc3c2O)cc1` (stereo not drawn): 2420 nM, 2700 nM and over 100000 nM.
The matching figures for `CCOc1ccc2nc3ccc([N+](=O)[O-])cc3c(NC)c2c1`: 222 nM, 534 nM and over 10000 nM.
Regarding `O=C(Cn1nc([N+](=O)[O-])nc1Br)NC1CCCCC1`, the values for the EC50 in the data set with Plasmodium falciparum [1] and with Plasmodium falciparum [2] were 4510 nM and 2660 nM, respectively. This compound showed a CC50 in data set [3] of over 100000 nM.
The like results for `COCCN1C(=O)c2ccccc2C(C(=O)Nc2cccc(C(F)(F)F)c2)C1c1cccs1` (stereo not drawn) were, in that order, 3830 nM, 2650 nM and over 100000 nM.
The like results for `CC(C)CCNc1ncc(C(=O)NCC(C)C)c(NCCc2ccccc2)n1` were, in that order, 724 nM, 543 nM and over 10000 nM.
The like results for `O=C(Nc1ccc2oc(-c3cccc4ccccc34)nc2c1)c1ccc([N+](=O)[O-])o1` were, in that order, 5060 nM, 2650 nM and over 100000 nM.
Consider `COC(=O)C[S+]([O-])c1ccccc1` (stereo not drawn), for which the concentration giving a half-maximal response (EC50) in the data set with Plasmodium falciparum [1] amounted to 647 nM; in the data set with Plasmodium falciparum [2] it was 543 nM. The same compound registered a CC50 in data set [3] of over 10000 nM.
The like results for `COCCCNC(=O)c1cc(NC(=O)CCCCl)ccc1N1CCc2ccccc2C1` were, in that order, 331 nM, 30.4 nM and 1130 nM.
The like results for `CCOc1ccc2c(c1)cc(CN(C(C)=O)C1CCCC1)c1nnnn12` were, in that order, over 1250 nM, 268 nM and over 10000 nM.
The like results for `Cc1ccc(C(OCC(C)(C)C[N+](C)(C)C)c2ccccc2)cc1` (stereo not drawn) were, in that order, 265 nM, 629 nM and 23300 nM.
Turning to `Cc1ccc(CN=C(N)Nc2nc(C)cc(C)n2)cc1`, the EC50 in the data set on Plasmodium falciparum [1] worked out at 653 nM; with Plasmodium falciparum [2], 609 nM. In data set [3], this compound came in with a CC50 of 11200 nM.
The matching figures for `Sc1nc2ccc3nsnc3c2[nH]1`: 713 nM, 537 nM and over 10000 nM.
`CCOC(=O)c1c[nH]c2c(CC)cccc2c1=O`: the figures for the EC50 in the data set on Plasmodium falciparum [1] and with Plasmodium falciparum [2] were 1660 nM and 2650 nM, respectively. Also, in data set [3], the CC50 is over 100000 nM.
Turning to `CCc1cc2c(Sc3nnc(N)s3)ncnc2s1`, the EC50 in the data set with Plasmodium falciparum [1] stood at 546 nM; with Plasmodium falciparum [2], 540 nM. In data set [3], this compound came in with a CC50 of over 10000 nM.
